Laboratory results published in paper PMC8151276, “An Integrated Approach toward NanoBRET Tracers for Analysis of GPCR Ligand Engagement” (Molecules, 2021).

Molecular target: T1, HTR2C (Homo sapiens, UniProt P28335)
T1 construct: purchased Promega (in-house HiBiT-GPCR construct library, NanoBRET)
T1 sequence (P28335 33-458): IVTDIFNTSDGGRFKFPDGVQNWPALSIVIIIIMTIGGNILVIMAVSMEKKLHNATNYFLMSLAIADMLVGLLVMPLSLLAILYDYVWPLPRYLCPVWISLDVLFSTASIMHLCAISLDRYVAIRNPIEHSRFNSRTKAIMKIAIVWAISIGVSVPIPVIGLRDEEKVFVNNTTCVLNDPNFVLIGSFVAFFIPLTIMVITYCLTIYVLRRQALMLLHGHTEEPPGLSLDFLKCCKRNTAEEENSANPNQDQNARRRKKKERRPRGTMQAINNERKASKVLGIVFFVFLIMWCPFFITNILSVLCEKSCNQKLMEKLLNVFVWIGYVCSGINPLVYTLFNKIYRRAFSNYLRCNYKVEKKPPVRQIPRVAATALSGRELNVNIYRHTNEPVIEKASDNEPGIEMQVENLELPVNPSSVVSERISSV
Test: NanoBRET screen HiBiT-HTR2C in HEK293
Assay type: binding
Experimental: Each tracer candidate was screened across the entire library of HiBiT-GPCR constructs using NanoBRET as the detection modality. As depicted in Figure 4A, the specificity of interactions was evaluated through decrease in BRET due to competitive displacement of a bound tracer by excess parental compound. Each tracer was analyzed for binding to each HiBiT-GPCR fusion in the absence and in the presence of competing parental compound. Briefly, HEK293 cells were transfected with HiBiT-GPCR constructs diluted into promoterless DNA to reduce expression and maximize translocation to the cell surface. Each tracer candidate was then screened at concentrations of 1 μM and 0.1 μM across cells expressing these fusions. Cells were treated for 1.5 h with tracer either alone or in the presence of 20 μM competing parental compound (i.e., control). BRET was measured upon addition of purified LgBiT and subsequent complementation with HiBiT genetically fused to a GPCR. The specificity of interactions was assessed through a decrease in BRET signal due to competitive displacement of the bound tracer. To further gauge the robustness of these interactions, the fold response over the control (i.e., BRETtracer/BRETcontrol) was calculated. We chose a 1.5-fold response, which translates to ≥7-fold signal over noise as the minimal threshold required to score an interaction as positive.
HiBiT-GPCR DNA constructs were diluted in 10 mM Tris pH 8 to a final concentration of 0.01 μg/μL, arrayed in 96-well plates and stored at −20 °C. For transfection, HEK293 cells were suspended in Opti-MEM (without phenol red) supplemented with 2% fetal bovine serum (Seradigm) and 100 units/mL penicillin–streptomycin (Gibco) at a final concentration of 220,000 cells/mL and dispensed into white 96-well plates at 90 μL/well. Subsequent transfections and screens were carried using an Agilent Bravo Automated Liquid Handling Platform. First, the 96-well HiBiT DNA arrays were diluted 25-fold in Opti-MEM (without serum or phenol red) to a final concentration of 0.0004 μg/μL and 20 μL of the diluted DNAs were transferred into new 96-well plates. Next, promoterless carrier DNA (1 μg/μL) was diluted 25-fold (0.04 μg/μL) and then dispensed into the diluted arrays at 20 μL/well. Following brief mixing, Viafect transfection reagent (Promega) diluted 16-fold into Opti-MEM was dispensed into the plates at 40 μL/well. After mixing by pipetting, plates were incubated for 10 min on the pipetting station deck. The DNA-transfection reagent complexes were then added to plates containing cells. To facilitate the screen, 10 μL of DNA-transfection reagent complexes were added in duplicates to the top 4 and bottom 4 rows, resulting in two identical 48-well arrays per plate. Plates with transfected cells were incubated for 18–20 h at 37 °C/5% CO2. A screen of each tracer across the entire library using two different concentrations requires duplicate plates of transfected cells. Depending on the number of tracers being screened, transfections can be scaled up using the same ratios. The next day, for each tracer, four 20× screening solutions in tracer dilution buffer (Promega) were prepared: two duplicates at final concentration of 20 μM and two duplicates at a final concentration of 2 μM. […] The four resulting solutions were diluted 4-fold in Opti-MEM without serum or phenol red to generate 5× solutions (5 µM and 0.5 µM tracer +/− 100 μM competing compound). To screen the library, a BioTek MultiFlo FX liquid dispenser was used to dispense 22.5 µL of tracer solution to the top 4 rows and 22.5 µL tracer + competing compound solution to the 4 bottom rows. Plates were briefly mixed on an orbital shaker and incubated for 1.5 h at room temperature. […] Plates were briefly mixed on an orbital shaker and incubated for 15 min to allow complementation.

Row | Compound | NanoBRET Fold Response (HTR2C, tracer 0.1μM) | NanoBRET Fold Response (HTR2C, tracer 1μM) | further results
1 | CCOC(=O)c1cc(C#N)c(N2CCC(C(=O)NS(=O)(=O)Cc3ccccc3/C=C/C(=O)NCCNC(=O)CCc3ccc4n3[B-](F)(F)[N+]3=C(c5ccc[nH]5)C=CC3=C4)CC2)nc1C [AZD1283-1-NB590] | – | – | NanoBRET Fold Response (HTR2C, 0.1μM): 0.95; NanoBRET Fold Response (HTR2C, 1μM): 1.04
2 | N#CN/C(=N\CCNC(=O)c1ccc(N)cc1)NCCCOc1cccc(CN2CCCCC2)c1 [Aminopotentidine (unmodified)] | – | – | NanoBRET Fold Response (HTR2C, other tracers/Aminopotentidine (unmodified), 0.1μM): 1.48; NanoBRET Fold Response (HTR2C, other tracers/Aminopotentidine (unmodified), 1μM): 1.66
3 | N#CN=C(NCCCOc1cccc(CN2CCCCC2)c1)NCCNC(=O)CCOCCOCCOCCOCCNC(=O)CCc1ccc2n1[B-](F)(F)[N+]1=C(c3ccc[nH]3)C=CC1=C2 [Aminopotentidine-2-NB590] | 1.01 | 1.04 | –
4 | CN(C)CCC=C1c2ccccc2CCc2ccc(C(=O)NCCNC(=O)CCOCCOCCOCCOCCNC(=O)CCc3ccc4n3[B-](F)(F)[N+]3=C(c5ccc[nH]5)C=CC3=C4)cc21 [Amitriptyline-a-2-NB590] | – | – | NanoBRET Fold Response (tracer at 1μM): 1.80
5 | CN(C)CCC=C1c2ccccc2CCc2ccc(C(=O)NCCNC(=O)CCOCCOCCOCCOCCNC(=O)CCc3ccc4n3[B-](F)(F)[N+]3=C(c5ccc[nH]5)C=CC3=C4)cc21 [Amitriptyline-b-2-NB590] | – | – | NanoBRET Fold Response (tracer at 0.1μM, listed as amitriptyline-b-2-NB590): 1.74; NanoBRET Fold Response (tracer at 1μM, listed as amitriptyline-b-2-NB590): 2.18
6 | CN(CCC=C1c2ccccc2CCc2ccccc21)C(=O)CCOCCOCCOCCOCCNC(=O)CCc1ccc2n1[B-](F)(F)[N+]1=C(c3ccc[nH]3)C=CC1=C2 [Amitriptyline-e-2-NB590] | – | – | NanoBRET Fold Response (tracer at 1μM): 1.03
7 | COc1ccc2c(n1)c(CCNC(C)=O)cn2CCNC(=O)CCc1ccc2n1[B-](F)(F)[N+]1=C(c3ccc[nH]3)C=CC1=C2 [Azamelatonin-1-NB590] | – | – | NanoBRET Fold Response (0.1μM tracer): 0.91; NanoBRET Fold Response (1μM tracer): 0.91
8 | COc1ccc2[nH]c(-c3ccc(CNC(=O)CCOCCOCCOCCOCCNC(=O)CCc4ccc5n4[B-](F)(F)[N+]4=C(c6ccc[nH]6)C=CC4=C5)cc3)c(CCNC(C)=O)c2n1 [AzomelatoninICO9-2-NB590] | – | – | NanoBRET Fold Response (0.1μM tracer): 1.02; NanoBRET Fold Response (1μM tracer): 1.10
9 | O=C(CCOCCOCCOCCOCCNC(=O)CCc1ccc2n1[B-](F)(F)[N+]1=C(c3ccc[nH]3)C=CC1=C2)NCCCN1CCN(C2=Nc3cc(Cl)ccc3Nc3ccccc32)CC1 [Clozapine-a-2-NB590] | – | – | NanoBRET Fold Response (HTR2C, 0.1μM tracer): 1.89; NanoBRET Fold Response (HTR2C, 1μM tracer): 3.22
10 | O=C(CCOCCOCCOCCOCCNC(=O)CCc1ccc2n1[B-](F)(F)[N+]1=C(c3ccc[nH]3)C=CC1=C2)NCCCN1CCN(C2=Nc3ccccc3Oc3ccc(Cl)cc32)CC1 [Loxapine-a-2-NB590] | 1.60 | 1.62 | –
11 | COc1ccccc1N1CCN(CCCCN2C(=O)c3ccc(CNC(=O)CCOCCOCCOCCOCCNC(=O)CCc4ccc5n4[B-](F)(F)[N+]4=C(c6ccc[nH]6)C=CC4=C5)cc3C2=O)CC1 [NAN-190-2-NB590] | 1.00 | 1.14 | –
12 | COc1ccccc1N1CCN(CCCCN2C(=O)c3ccc(CNC(=O)CCOCCNC(=O)c4ccc(CNC(=O)CCc5ccc6n5[B-](F)(F)[N+]5=C(c7ccc[nH]7)C=CC5=C6)cc4)cc3C2=O)CC1 [NAN-190-3-NB590] | 1.04 | 1.06 | –
13 | O=C(CCc1ccc2n1[B-](F)(F)[N+]1=C(c3ccc[nH]3)C=CC1=C2)NCc1ccc(C(=O)NCCOCCC(=O)N[C@@H]2CC[C@@]3(O)[C@H]4Cc5ccc(O)c6c5[C@@]3(CCN4CC3CC3)[C@H]2O6)cc1 [Naltrexone-3-NB590] | 0.79 | 1.03 | –
14 | Cc1cc2c(s1)Nc1ccccc1N=C2N1CCN(CCCNC(=O)CCOCCOCCOCCOCCNC(=O)CCc2ccc3n2[B-](F)(F)[N+]2=C(c4ccc[nH]4)C=CC2=C3)CC1 [Olanzapine-a-2-NB590] | 1.54 | 1.22 | –
15 | O=C(CCc1ccc2n1[B-](F)(F)[N+]1=C(c3ccc[nH]3)C=CC1=C2)NCc1ccc(C(=O)NCCOCCOCCNCC(O)COc2cccc3ccccc23)cc1 (centres unmarked) [Propranolol-3-NB590] | – | – | NanoBRET Fold Response (HTR2C, 0.1μM): 1.22; NanoBRET Fold Response (HTR2C, 1μM): 1.21
16 | O=C(CCc1ccc2n1[B-](F)(F)[N+]1=C(c3ccc[nH]3)C=CC1=C2)NCCOCCOCCNC(=O)OCCOCCN1CCN(C2=Nc3ccccc3Sc3ccccc32)CC1 [Quetiapine-a-2-NB590] | 0.99 | 1.17 | –
17 | Cc1nc2n(c(=O)c1CCN1CCC(c3noc4cc(F)ccc34)CC1)CCCC2OC(=O)NCCOCCOCCOCCOCCNC(=O)CCc1ccc2n1[B-](F)(F)[N+]1=C(c3ccc[nH]3)C=CC1=C2 (centres unmarked) [Risperidone-2-NB590] | 1.26 | 2.15 | –
18 | CC(C)N(CC[C@H](c1ccccc1)c1cc(CCNC(=O)CCOCCOCCOCCOCCNC(=O)CCc2ccc3n2[B-](F)(F)[N+]2=C(c4ccc[nH]4)C=CC2=C3)ccc1O)C(C)C [Tolterodine-2-NB590] | 1.09 | 1.01 | –
19 | CC(C)N(CC[C@H](c1ccccc1)c1cc(CCNC(=O)c2ccc(CNC(=O)CCc3ccc4n3[B-](F)(F)[N+]3=C(c5ccc[nH]5)C=CC3=C4)cc2)ccc1O)C(C)C [Tolterodine-BZ-NB590] | 0.86 | 1.55 | –
20 | CCCn1c(=O)c2[nH]c(-c3ccc(OCC(=O)NCCNC(=O)CCOCCNC(=O)c4ccc(CNC(=O)CCc5ccc6n5[B-](F)(F)[N+]5=C(c7ccc[nH]7)C=CC5=C6)cc4)cc3)nc2n(CCC)c1=O [XAC-3-NB590] | 1.45 | 0.88 | –
